Tested on: S. typhimurium TA98
Test: Antimutagenicity assay (Ames test with known mutagens), strain TA98
Format: cell-based, Salmonella typhimurium
[1] = 0.69 µg/plate + B[a]P 1.0 μg/plate, TA 98, + S9
[2] = 0.69 µg/plate + NOPD 10.0 μg/plate, TA 98, − S9
[3] = 1.37 µg/plate + B[a]P 1.0 μg/plate, TA 98, + S9
[4] = 1.37 µg/plate + NOPD 10.0 μg/plate, TA 98, − S9
[5] = 2.75 µg/plate + B[a]P 1.0 μg/plate, TA 98, + S9
[6] = 2.75 µg/plate + NOPD 10.0 μg/plate, TA 98, − S9
[7] = 5.49 µg/plate + B[a]P 1.0 μg/plate, TA 98, + S9
[8] = 5.49 µg/plate + NOPD 10.0 μg/plate, TA 98, − S9
[9] = […] + B[a]P 1.0 μg/plate, TA 98, + S9
[10] = […] + NOPD 10.0 μg/plate, TA 98, − S9

For CC(C)=CCc1cc(/C=C/C(=O)O)cc(CC=C(C)C)c1O [ArtC, 3-{4-hydroxy-3,5-di(3-methyl-2-butenyl)phenyl}-2(E)-propenoic acid], the “% inhibition” value [1] was 38%, the antimutagenic effect class [1] was “** (moderate effect (25% - 40% inhibition))” and the “% inhibition” value [2] was 37%. The “Number of revertants (M ± SD)/ plate” value [2] was 526 ± 12 revertants/plate, the antimutagenic effect class [2] was “** (moderate effect (25% - 40% inhibition))” and the “% inhibition” value [3] was 43%. The antimutagenic effect class [3] was “*** (strong antimutagenic effect (> 40% inhibition))”, the “% inhibition” value [4] was 38% and the “Number of revertants (M ± SD)/ plate” value [4] was 520 ± 18 revertants/plate. For the same compound, the antimutagenic effect class [4] was “** (moderate effect (25% - 40% inhibition))”, the “% inhibition” value [5] was 56% and the antimutagenic effect class [5] was “*** (strong antimutagenic effect (> 40% inhibition))”. The “% inhibition” value [6] was 42%, the “Number of revertants (M ± SD)/ plate” value [6] was 484 ± 31 revertants/plate and the antimutagenic effect class [6] was “*** (strong antimutagenic effect (> 40% inhibition))”. The “% inhibition” value [7] was 56%, the antimutagenic effect class [7] was “*** (strong antimutagenic effect (> 40% inhibition))” and the “% inhibition” value [8] was 37%. The “Number of revertants (M ± SD)/ plate” value [8] was 532 ± 27 revertants/plate, the antimutagenic effect class [8] was “** (moderate effect (25% - 40% inhibition))” and the “% inhibition” value [9] was 62%. For the same compound, the antimutagenic effect class [9] was “*** (strong antimutagenic effect (> 40% inhibition))”, the “% inhibition” value [10] was 41% and the antimutagenic effect class [10] was “*** (strong antimutagenic effect (> 40% inhibition))”.

— publication PMC6268188, “Comparative Studies of the (Anti) Mutagenicity of Baccharis dracunculifolia and Artepillin C by the Bacterial Reverse Mutation Test” (Molecules, 2012)
